Read-outs that look alike come from different tables or passages of the source.
Key:
cytochrome P450 1A2 = biological target: T1, cytochrome P450 1A2 (Homo sapiens, UniProt P05177); test: Cytochrome inhibition in human liver microsomes, 1A2; format: in vitro ADME; conditions: substrate Phenacetin, read-out: IC50, 1A2 (PSMA-Abi)
T1 construct: isoenzyme activity in human liver microsomes using conventional sample substrates and HPLC-MS/MS detection; from tissue; host or cells: human liver microsomes
T1 sequence (P05177 1-516): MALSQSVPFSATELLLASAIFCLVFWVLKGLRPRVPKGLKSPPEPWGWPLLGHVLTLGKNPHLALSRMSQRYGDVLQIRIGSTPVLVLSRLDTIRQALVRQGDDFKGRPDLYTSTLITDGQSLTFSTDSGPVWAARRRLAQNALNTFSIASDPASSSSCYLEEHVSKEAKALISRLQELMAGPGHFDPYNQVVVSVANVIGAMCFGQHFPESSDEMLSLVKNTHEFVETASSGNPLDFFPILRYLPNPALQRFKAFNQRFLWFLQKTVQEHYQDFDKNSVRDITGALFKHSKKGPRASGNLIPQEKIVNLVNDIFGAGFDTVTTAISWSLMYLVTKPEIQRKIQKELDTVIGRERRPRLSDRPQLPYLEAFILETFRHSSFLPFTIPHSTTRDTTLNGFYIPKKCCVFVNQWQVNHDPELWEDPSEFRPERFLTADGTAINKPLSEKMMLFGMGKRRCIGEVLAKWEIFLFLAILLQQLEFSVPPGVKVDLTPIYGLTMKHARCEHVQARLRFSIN
From the text: (§1) To assess the effect of drugs on liver cytochrome activity in drug development, test systems with recombinant enzymes and fluorescent substrates as well as microsomes with metabolic substrates and HPLC-MS/MS analysis were used. The present study aimed to investigate the effect of targeted delivery drugs specific to malignant prostate cells on cytochrome P450 (CYP450) isoenzyme activity in human liver microsomes using conventional sample substrates and HPLC-MS/MS detection. Detailed methodological parameters are described in the Supplementary Material.

[1] = system: human adult dermal fibroblasts (HDFa); test: Cytotoxicity on human adult dermal fibroblasts, MTT-test; format: cell-based
Experimental: Human adult dermal fibroblasts (HDFa). (ATCC) were propagated in DMEM medium (Paneco) supplemented with 10% fetal calf serum (Gibco) and 1% pemicillin/streptomycin in a 5% CO2 atmosphere at 37 °C. Cytotoxicity of PSMA-Abi and AbiAc in fibroblasts were studied using MTT-test. The cells in the exponential growth phase were trypsinized, counted, and seeded at a density of 5000 cells/well in 96-well plate. Cells were incubated with both tested agents at the designated concentrations (0.4–100 μM) for 72 h; then, each well was treated with 20 μL MTT solution in PBS (5 mg/mL) and cells were incubated at least for 3 h, and formazan was dissolved in DMSO. The absorbance was measured at […] and 620 nm using Thermofischer Scientific Multiscan FC. The values for each point were calculated from 6 wells.

[2] = system: 22Rv1 prostate cancer subcutaneous xenograft; test: 22Rv1 human tumor xenograft mouse model; format: in vivo, Balb/c nude mice; conditions: 22Rv1 xenografts
Experimental: Male, 6–8 week old Balb/c nude mice with body weight range of 20–22 g were purchased from N.N.Blokhin Cancer Research Center. Animals were kept in plastic cages equipped with lids with feeding recesses, air filters, and feed dividers at 2–3 mice per cage.
Mice were injected subcutaneously in the right and left flanks with 1 × 10^7 22Rv1 cells in RPMI-1640 medium 0.2 mL supplemented with 0.2 mL Corning Matrigel® matrix (Corning, NY, USA) in a total volume of 400 μL. When the average size of the tumors reached ~100 mm^3, mice were randomly divided into three groups, with five mice per group, including a vehicle group (1% starch paste) and two treatment groups: PSMA-Abi 500 mg/kg/day and AbiAc 200 mg/kg/day for 14 days. The drugs were administered orally, and all compounds were formulated with 1% starch paste. Following the treatment, the primary tumor size was measured twice weekly with a micro-caliper, and the tumor volume was calculated using the formula: Volume = π/6 × length × width × height. Treatment outcome was based on percentage of tumor growth inhibition (%TGI), defined as the percent difference between the median tumor volumes (MTVs) of mice in the treated and control groups. Percent TGI was calculated using the following formula: %TGI = [1 − (MTV treatment group/MTV control)] 100%. All data are presented as means ± SD. Statistical analyses of in vivo research were performed using SPSS Statistics V. 22.0, comparing continuous variables by non-parametrical Mann–Whitney U. * p ≤ 0.05 was considered as significant in comparison with the control.

cytochrome P450 3A4 = biological target: T2, cytochrome P450 3A4 (Homo sapiens, UniProt P08684); test: Cytochrome inhibition in human liver microsomes, 3A4; format: in vitro ADME
T2 construct: isoenzyme activity in human liver microsomes using conventional sample substrates and HPLC-MS/MS detection; from tissue; host or cells: human liver microsomes
T2 sequence (P08684 whole entry): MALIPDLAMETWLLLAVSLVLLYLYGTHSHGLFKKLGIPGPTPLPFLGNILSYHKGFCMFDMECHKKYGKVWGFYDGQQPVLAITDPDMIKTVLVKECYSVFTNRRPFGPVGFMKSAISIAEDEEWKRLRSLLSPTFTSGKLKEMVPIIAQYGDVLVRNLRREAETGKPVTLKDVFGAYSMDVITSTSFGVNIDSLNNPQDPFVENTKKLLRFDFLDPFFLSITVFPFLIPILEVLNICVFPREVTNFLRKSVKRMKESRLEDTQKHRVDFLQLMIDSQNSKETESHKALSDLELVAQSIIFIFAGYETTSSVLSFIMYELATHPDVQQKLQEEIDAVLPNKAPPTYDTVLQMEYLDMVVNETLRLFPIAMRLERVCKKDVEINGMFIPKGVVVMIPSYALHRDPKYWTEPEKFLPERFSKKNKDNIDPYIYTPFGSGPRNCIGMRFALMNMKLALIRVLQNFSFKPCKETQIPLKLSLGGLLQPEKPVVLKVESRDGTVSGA
From the text: as §1

22Rv1 cells = test: Cell cycle analysis; format: cell-based, human
Experimental: Cell cycle was analyzed in 22Rv1 cells fixed in 70% ethanol with Muse® cell cycle kit. The fixation lasted overnight at −20 °C. Then, cells were collected by centrifugation at 4000 rpm for 10 min and washed with PBS. The cells were resuspended with Muse® Cell Cycle reagent and incubated for 30 min at room temperature in the dark; then, they were counted.

[3] = oral x14, PSMA-Abi 500, AbiAc 200 mg/kg/day

C[C@]12CC[C@H](OC(=O)CCCc3cn(CCCNC(=O)[C@H](Cc4ccc(O)cc4)NC(=O)[C@H](Cc4ccccc4)NC(=O)CCC(=O)NCCCCCC(=O)N(CCCC[C@H](NC(=O)N[C@@H](CCC(=O)O)C(=O)O)C(=O)O)Cc4cccc(Cl)c4)nn3)CC1=CC[C@@H]1[C@@H]2CC[C@]2(C)C(c3cccnc3)=CC[C@@H]12 [PSMA-Abi]
IC50 (cytochrome P450 1A2): 4.5 ± 1.1 µM
CC50 ([1]; HDFa, 72 h, MTT): > 100 µM
toxicity for human fibroblasts ([1]; tested concentrations 0.4–100 µM): inactive
TGImax (tumor growth inhibition) ([2]; oral x14, PSMA-Abi 500 mg/kg/day, AbiAc 200 mg/kg/day, after the end of treatment): 65%
TGI, day 15 after start of the treatment [2, 3]: 65%
TGI, day 18 after start of the treatment [2, 3]: 63%
TGI, day 22 after start of the treatment [2, 3]: 60%
Tumor volume (M+SE), day 15 [2, 3]: 876±197 mm3
Tumor volume (M+SE), day 18 [2, 3]: 1063±195 mm3
Tumor volume (M+SE), day 22 [2, 3]: 1294±201 mm3
Tumor volume (M+SE), day 0 ([2]; start of treatment): 110±18 mm3
IC50 (cytochrome P450 3A4; substrate Midazolam, read-out: IC50, 3A4-M (PSMA-Abi)): 1.1 ± 0.2 µM
IC50 (cytochrome P450 3A4; substrate Testosterone, read-out: IC50, 3A4-T (PSMA-Abi)): 5.7 ± 0.8 µM
effect on cell cycle (22Rv1 cells; 22Rv1, against a control group): not statistically significant against a control group
level of G0/G1 cells (22Rv1 cells; 22Rv1, with increasing concentration): practically unchanged
